Measurements published in US20190225650A1, “PEPTIDOMIMETIC MACROCYCLES AND USE THEREOF IN REGULATING HIF1ALPHA” (AILERON THERAPEUTICS, INC., priority 2013, published 2019).
Bridge positions count the residues as written; N and C are the ends. Square brackets hold non-standard residues; d marks the D form. Peptide text beside a SMILES is read from it. Ala(3-Me-diazirin-3-yl) = CC1(C[C@H](N)C(=O)O)N=N1; R8 = C=CCCCCCC[C@@](C)(N)C(=O)O; S5 = C=CCCC[C@](C)(N)C(=O)O; Nle = CCCC[C@H](N)C(=O)O; Dap = NC[C@H](N)C(=O)O

Key:
[1] = biological target: T1, flag-tagged HIF1α (AA 786-826) / His6-tagged p300 (AA 323-423) complex (Homo sapiens, UniProt Q09472); assay: HIF1α p300 displacement assay (TR FRET, +CHAPS); format: binding; conditions: read-out: IC50 (nM) (HIF1α_p300 Displacement + CHAPS)
T1 construct: His6-tagged p300 (AA 323-423); made in house; host or cells: E. coli (pETDuet vector)
Description: The ability of peptides to displace HIF1α c-terminal trans-activation domain from p300-CH was measured by a TR FRET assay. A complex of flag-tagged HIF1α (AA 786-826) and His6-tagged p300 (AA 323-423) was co-expressed using pETDuet vector (EMDMillipore, Bellrica Mass.) and purified from E. coli in the presence of 0.1 mM ZnSO4. The complex was diluted to 300 nM final in complete assay media and competitor peptides were added. The complete assay media contained 150 mM NaCl (Sigma +S5150 or equivalent), 20 mM HEPES pH 7.4 (Boston Bioproducts, Ashland, Mass.; #BB-2076), 7.5 mM CHAPS (Thermo #28300 or equivalent), and 1 mM DTT. Protein and peptide were incubated at room temperature for 1 hour before the addition of anti-Flag-K and anti-6×HIS-D2 (CisBio, Bedford Mass.) HTRF reconstitution buffer (50 mM Phosphate pH 7, 0.8 Potassium Flouride, BSA 0.2%)^1 to a final concentration of 0.5 μM and 4 nM respectively. The reaction continued for an additional two hours at room temperature. The reaction was read on a TECAN F500 plate reader with settings recommended by CisBio. The ratio of donor to acceptor fluorescence was calculated. The resulting data was analyzed with Graphpad Prism 5.0. IC50 values were calculated for both proteins using the One Site Fit-LogIC50 equation and presented in the column “IC50 (nM) (HIF1α_p300 Displacement+CHAPS)” of Table 6. ^1 Cisbio USA, Bedford, Mass.; 61HISDLB (lot 007A), 61FG2KLB (024A), HTRF Buffer (62RB3RDF)

HRE-bla ME-180 cells = assay: Reporter gene assay (HRE-bla ME-180 HIF reporter, GeneBLAzer); format: cell-based, human; conditions: for EC50: 24 hour normoxia
Outline: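 A FRET β-lactamase readout of HIF transcription was used. After compound treatment in 0.3% DMSO/media under normoxic conditions, 20 μl of 6× LiveBLAzer-FRET B/G (CCF4-AM) substrate was added. Plates sat 3 hr at room temperature in the dark and were read at 409 Ex/460Em and 409Ex/530Em on a Synergy 2. Inhibition was compared against DMSO vehicle controls, with chetomin as positive control.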

| Compound | IC50 [1] | EC50 (HRE-bla ME-180 cells) | 18 h Avg % max inhibition at top conc (HIF Rptr-24 hrs normoxia) (μM) (HRE-bla ME-180 cells) |
| --- | --- | --- | --- |
| CCCC[C@H](NC(=O)[C@H](CCC(=O)O)NC(=O)[C@@H](NC(=O)[C@@H](NC(=O)[C@H](CC(N)=O)NC(=O)[C@]1(C)CCCC=CCCC[C@](C)(NC(=O)[C@H](C)NC(=O)[C@H](CC(=O)O)NC(=O)[C@@H](NC(=O)[C@H](Cc2ccccc2)NC(C)=O)[C@@H](C)CC)C(=O)N[C@@H](C(C)C)C(=O)N[C@@H](CC(C)C)C(=O)N[C@@H](CCCC)C(=O)N1)C(C)C)[C@@H](C)CC)C(=O)N[C@@H](C)C(=O)N[C@@H](CC(C)C)C(N)=O [SP-150] (Ac-FIDA[S5]VL[Nle][S5]NVIE[Nle]AL-NH2; staple 5-9) | 200 to 400 nM |  |  |
| SP-72 (Ac-FIDEEVL[Nle][S5]L[Ala(3-Me-diazirin-3-yl)]I[S5][Nle]ALDRI-NH2; staple 9-13) | 400 to 700 nM |  |  |
| CCCC[C@H](NC(=O)[C@H](CC(C)C)NC(=O)[C@@H](NC(=O)[C@H](CCC(N)=O)NC(=O)[C@H](CCC(=O)O)NC(=O)[C@H](CC(=O)O)NC(=O)[C@@H](NC(=O)[C@H](Cc1ccccc1)NC(C)=O)[C@@H](C)CC)C(C)C)C(=O)N[C@@]1(C)CCCC=CCCC[C@@](C)(C(=O)N[C@@H](CCCC)C(=O)N[C@@H](C)C(=O)N[C@@H](CC(C)C)C(=O)N[C@@H](CC(=O)O)C(=O)N[C@@H](CCCNC(=N)N)C(=O)N[C@H](C(N)=O)[C@@H](C)CC)NC(=O)[C@H]([C@@H](C)CC)NC(=O)[C@H](C(C)C)NC(=O)[C@H](CC(C)C)NC1=O [SP-69] (Ac-FIDEQVL[Nle][S5]LVI[S5][Nle]ALDRI-NH2; staple 9-13) |  | 5 to 15 µM | ++++ (≥50: ++++) |
| CCCC[C@H](NC(=O)[C@H](CC(C)C)NC(=O)[C@@H](NC(=O)[C@H](CO)NC(=O)[C@H](CCC(=O)O)NC(=O)[C@H](CC(=O)O)NC(=O)[C@@H](NC(=O)[C@H](Cc1ccccc1)NC(C)=O)[C@@H](C)CC)C(C)C)C(=O)N[C@@]1(C)CCCC=CCCC[C@@](C)(C(=O)N[C@@H](CCCC)C(=O)N[C@@H](C)C(=O)N[C@@H](CC(C)C)C(=O)N[C@@H](CC(=O)O)C(=O)N[C@@H](CCCNC(=N)N)C(=O)N[C@H](C(N)=O)[C@@H](C)CC)NC(=O)[C@H]([C@@H](C)CC)NC(=O)[C@H](C(C)C)NC(=O)[C@H](CC(C)C)NC1=O [SP-47] (Ac-FIDESVL[Nle][S5]LVI[S5][Nle]ALDRI-NH2; staple 9-13) |  | 5 to 15 µM | ++++ (≥50: ++++) |
| CCCC[C@H](NC(=O)[C@H](CC(C)C)NC(=O)[C@@H](NC(=O)[C@H](CCC(=O)O)NC(=O)[C@H](CCC(=O)O)NC(=O)[C@H](CC(=O)O)NC(=O)[C@@H](NC(=O)[C@H](CCC(=O)O)NC(C)=O)[C@@H](C)CC)C(C)C)C(=O)N[C@@]1(C)CCCC=CCCC[C@@](C)(C(=O)N[C@@H](CCCC)C(=O)N[C@@H](C)C(=O)N[C@@H](CC(C)C)C(=O)N[C@@H](CC(=O)O)C(=O)N[C@@H](CCCNC(=N)N)C(=O)N[C@H](C(N)=O)[C@@H](C)CC)NC(=O)[C@H]([C@@H](C)CC)NC(=O)[C@H](C(C)C)NC(=O)[C@H](CC(C)C)NC1=O [SP-30] (Ac-EIDEEVL[Nle][S5]LVI[S5][Nle]ALDRI-NH2; staple 9-13) |  | > 30 µM | ++ (≤10 but <25: ++) |
| CCCC[C@H](NC(=O)[C@H](CC(C)C)NC(=O)[C@@H](NC(=O)[C@H](CCC(=O)O)NC(=O)[C@H](CCC(=O)O)NC(=O)[C@H](CC(=O)O)NC(=O)[C@@H](NC(=O)[C@H](Cc1ccccc1)NC(C)=O)[C@@H](C)CC)C(C)C)C(=O)N[C@@]1(C)CCCC=CCCC[C@@](C)(C(=O)N[C@@H](CCCC)C(=O)N[C@@H](C)C(=O)N[C@@H](CC(C)C)C(=O)N[C@@H](CC(=O)O)C(=O)N[C@@H](CCC(=O)O)C(=O)N[C@H](C(N)=O)[C@@H](C)CC)NC(=O)[C@H]([C@@H](C)CC)NC(=O)[C@H](C(C)C)NC(=O)[C@H](CC(C)C)NC1=O [SP-41] (Ac-FIDEEVL[Nle][S5]LVI[S5][Nle]ALDEI-NH2; staple 9-13) |  | 15 to 30 µM | ++++ (≥50: ++++) |
| CCCC[C@H](NC(=O)[C@H](CC(C)C)NC(=O)[C@@H](NC(=O)[C@H](CCC(=O)O)NC(=O)[C@H](CCC(=O)O)NC(=O)[C@H](CC(=O)O)NC(=O)[C@@H](NC(=O)[C@H](CN)NC(C)=O)[C@@H](C)CC)C(C)C)C(=O)N[C@@]1(C)CCCC=CCCC[C@@](C)(C(=O)N[C@@H](CCCC)C(=O)N[C@@H](C)C(=O)N[C@@H](CC(C)C)C(=O)N[C@@H](CC(=O)O)C(=O)N[C@@H](CCCNC(=N)N)C(=O)N[C@H](C(N)=O)[C@@H](C)CC)NC(=O)[C@H]([C@@H](C)CC)NC(=O)[C@H](C(C)C)NC(=O)[C@H](CC(C)C)NC1=O [SP-61] (Ac-[Dap]IDEEVL[Nle][S5]LVI[S5][Nle]ALDRI-NH2; staple 9-13) |  | > 30 µM | + (<10: +) |

Second part, led by results:

| IC50 [1] | EC50 (HRE-bla ME-180 cells) | Compound | 18 h Avg % max inhibition at top conc (HIF Rptr-24 hrs normoxia) (μM) (HRE-bla ME-180 cells) |
| --- | --- | --- | --- |
| > 700 nM |  | CSCC[C@@H]1NC(=O)[C@H](CC(C)C)NC(=O)[C@H](C(C)C)NC(=O)[C@](C)(NC(=O)[C@H](CCC(=O)O)NC(=O)[C@@H](NC(=O)[C@H](CC(C)C)NC(C)=O)[C@@H](C)O)CCCCCCC=CCCC[C@@](C)(C(=O)N[C@@H](CO)C(=O)N[C@@H](C)C(=O)N[C@@H](C)C(N)=O)NC(=O)[C@H](C(C)C)NC(=O)[C@H](CC(C)C)NC(=O)[C@H](CO)NC1=O [SP-181] (Ac-LTE[R8]VLMSLV[S5]SAA-NH2; staple 4-11) |  |
| > 700 nM |  | CCCC[C@@H]1NC(=O)[C@H](CC(C)C)NC(=O)[C@H](C(C)C)NC(=O)[C@](C)(NC(=O)[C@H](CCC(=O)O)NC(=O)[C@H](CC(=O)O)NC(=O)[C@@H](NC(=O)[C@H](Cc2ccccc2)NC(C)=O)[C@@H](C)CC)CCCCCCC=CCCC[C@@](C)(C(=O)N[C@@H](CCC(=O)O)C(=O)N[C@@H](CCSC)C(=O)NCC(N)=O)NC(=O)[C@H](C(C)C)NC(=O)[C@H](CC(C)C)NC(=O)[C@H](CO)NC1=O [SP-185] (Ac-FIDE[R8]VL[Nle]SLV[S5]EMG-NH2; staple 5-12) |  |
| > 700 nM |  | CCCC[C@@H]1NC(=O)[C@](C)(NC(=O)[C@@H](NC(=O)[C@H](CCC(=O)O)NC(=O)[C@H](CCC(=O)O)NC(=O)[C@H](CC(=O)O)NC(=O)[C@@H](NC(=O)[C@H](CC(N)=O)NC(=O)[C@@H](NC(=O)[C@H](CCC(N)=O)NC(=O)[C@H](CC(=O)O)NC(=O)[C@H](CC(C)C)NC(=O)[C@]2(C)CCCC=CCCC[C@](C)(NC(=O)[C@H](CCC(=O)O)NC(=O)CNC(=O)[C@H](CCC(N)=O)NC(=O)[C@H](CC(C)C)NC(=O)[C@H](CC(C)C)NC(C)=O)C(=O)N[C@@H](CC(C)C)C(=O)N[C@@H](CC(C)C)C(=O)N[C@@H](CCCNC(=N)N)C(=O)N2)C(C)C)[C@@H](C)CC)C(C)C)CCCCCCC=CCCC[C@@](C)(C(=O)NCC(N)=O)NC(=O)[C@H](CCC(=O)O)NC(=O)[C@H]([C@@H](C)CC)NC(=O)[C@H](C(C)C)NC(=O)[C@H](CC(C)C)NC(=O)[C@H](CO)NC1=O [SP-315] (Ac-LLQGE[S5]LLR[S5]LDQVNIDEEV[R8][Nle]SLVIE[S5]G-NH2; staple 6-10, 21-28) |  |
| > 700 nM |  | CC[C@H](C)[C@H](NC(=O)[C@H](Cc1ccccc1)NC(C)=O)C(=O)N[C@@H](CC(=O)O)C(=O)N[C@@H](CCC(=O)O)C(=O)N[C@]1(C)CCCCCCC=CCCC[C@@](C)(C(=O)N[C@@H](CCC(=O)O)C(=O)N[C@@H](CCSC)C(=O)N[C@@H](C)C(=O)N[C@@H](C)C(=O)N[C@@H](C)C(N)=O)NC(=O)[C@H](C(C)C)NC(=O)[C@H](CC(C)C)NC(=O)[C@H](CO)NC(=O)[C@H](CCSC)NC(=O)[C@H](CC(C)C)NC(=O)[C@H](C(C)C)NC1=O [SP-179] (Ac-FIDE[R8]VLMSLV[S5]EMAAA-NH2; staple 5-12) |  |
